According to US20130102009A1, “SIRTUIN ACTIVATORS AND ACTIVATION ASSAYS” (priority 2010, published 2013):

Legend:
TAMRA-peptide = assay: ITC binding of STACs to TAMRA-peptide; conditions: 26° C., pH 7.3, read-out: Kd for the binding of activator to TAMRA-peptide
Description: (§1) ITC experiments were performed using either a VP-ITC system or iTC200 system (MicroCal) at 26° C. in a buffer composed of 137 mM NaCl, 2.7 mM KCl, 1 mM MgCl2, 2 mM TCEP, 5% (v/v) glycerol and 50 mM HEPES-NaOH, pH 7.3. SIRT1(183-664) was purified and dialyzed against the buffer, centrifuged, and degassed before the experiment. The peptide and compounds were dissolved in the final dialysis buffer and their pH values were adjusted to match that of the protein solution. […] To characterize this interaction using the iTC200 system, 1 mM TAMRA-peptide was injected in 20 aliquots of 2 μL, (except the first injection, which was 0.5 μL) into a 0.202 mL sample cell containing 100 μM STAC. For STACs with poor solubility, the concentrations were adjusted accordingly. […] In all cases, data was corrected for the heat of dilution and fitted using a nonlinear least-squares routine using a single-site binding model with Origin for ITC v7.0383 (Microcal) with the stoichiometry (n), the enthalpy of the reaction (ΔH) and the association constant (Ka) calculated.

SIRT1 [1] = target: T1, SIRT1 (Homo sapiens, UniProt Q96EB6); assay: Mass spectrometry based SIRT1 activation assay (TAMRA/5TMR-labeled 20mer peptide); assay type: biochemical
T1 sequence (Q96EB6 1-747): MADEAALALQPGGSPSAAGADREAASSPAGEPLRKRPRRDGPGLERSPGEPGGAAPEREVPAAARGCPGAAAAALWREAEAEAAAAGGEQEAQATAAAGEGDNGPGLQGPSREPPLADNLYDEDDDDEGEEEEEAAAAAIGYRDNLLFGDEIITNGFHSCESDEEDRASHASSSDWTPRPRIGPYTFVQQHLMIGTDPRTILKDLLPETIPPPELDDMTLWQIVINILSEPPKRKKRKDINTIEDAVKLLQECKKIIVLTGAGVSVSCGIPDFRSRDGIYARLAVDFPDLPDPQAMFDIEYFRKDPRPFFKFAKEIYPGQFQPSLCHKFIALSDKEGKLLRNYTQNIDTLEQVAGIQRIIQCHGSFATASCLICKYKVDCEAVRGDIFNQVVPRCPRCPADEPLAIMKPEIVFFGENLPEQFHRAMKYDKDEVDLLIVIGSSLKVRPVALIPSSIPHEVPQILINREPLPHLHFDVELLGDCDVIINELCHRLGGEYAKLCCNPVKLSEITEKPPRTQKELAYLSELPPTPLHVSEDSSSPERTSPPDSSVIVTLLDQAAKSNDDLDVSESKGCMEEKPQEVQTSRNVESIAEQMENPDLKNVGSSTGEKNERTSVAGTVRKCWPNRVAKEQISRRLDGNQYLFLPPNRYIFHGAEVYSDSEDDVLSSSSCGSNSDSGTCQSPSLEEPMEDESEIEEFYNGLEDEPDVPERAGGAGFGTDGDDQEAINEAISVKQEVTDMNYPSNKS
Outline: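 N-terminal His-tagged human SIRT1 from E. coli BL21(DE3), 10 nM, incubated 25 min at 25° C with 0.5 μM biotin/5TMR-labeled acetylated p53-derived 20mer peptide and 120 μM βNAD+ in Tris-acetate pH 8 buffer with DTT and BSA. Formic acid stop; MS quantifies acetylated vs deacetylated peptide. EC1.5 = concentration giving 150% activation.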

SIRT1 [2] = target: T1, SIRT1; assay: Mass spectroscopic kinetic assay of SIRT1-catalyzed deacetylation of 20mer peptides; assay type: biochemical; conditions: substrate TAMRA-peptide
Description: Bovine glutamate dehydrogenase (GDH), α-ketoglutarate, NADH and NAD^+ were from Sigma Chemical Company. […] The nicotinamidase PNC1 was prepared as described by Denu and colleagues (Smith et al. (2009) Anal Biochem 394, 101-109). Our collection of approximately 5,000 SIRT1 activators was screened using the BioTrove mass spectrometry system, as previously described (Milne et al. (2007) Nature 450, 712-716). […] Compounds were present at 10 μM, and the assays were conducted in a pH 7.4 buffer containing 150 mM Tris, 5 mM DTT, 1% DMSO, and 0.025% BSA. To determine the interaction of STACs with SIRT1 two kinetic methods were employed. […] (2007) Nature 450, 712-716). The other, used with peptides of general structure […], used a continuous, enzyme-coupled method reported previously (Smith et al. (2009) Anal Biochem 394, 101-109), in which the SRT1 product nicotinamide is first converted into nicotinic acid and ammonia by the action of PNC1, and the ammonia then used by GDH to convert α-ketoglutarate into glutamate. This reaction occurs with oxidation of NADH to NAD^+ which is accompanied by a change in absorbance at 340 nm (Δε340=-6,200 M^-1 cm^-1). Activator titrations were plotted as relative velocity (i.e., the ratio of vx, velocity in the presence of activator X, to vo, velocity in the absence of activator) vs. [X]o, initial concentration of activator, and fit by nonlinear least-squares to the mechanism-independent expression for enzyme activation of […] the maximum relative velocity (i.e., vx/vo at infinite [X]o) and EC50 is the activator concentration at which vx/vo=(RVmax-1)/2. EC50 is a function of the kinetic mechanisms of both catalysis and activation, and the concentrations of substrates.

[3] = target: Ac-Arg-His-Lys-Lys^Ac-AMC; assay: ITC binding of STACs to Ac-Arg-His-Lys-Lys^Ac-X, X=AMC; conditions: 10% DMSO for SRT1720, SRT2183 and 10, no cosolvent for SRT1460
Description: as §1, with “calculated. Table 2 summarizes Kd values for the binding of STACs to […]. Note that except for SRT1460, the solubility of the compounds required that these ITC experiments be done in solutions containing 10% DMSO.” for “calculated.”

[4] = target: Ac-Arg-His-Lys-Lys^Ac-NH2; assay: ITC binding of STACs to Ac-Arg-His-Lys-Lys^Ac-X, X=NH2; conditions: 10% DMSO for SRT1720, SRT2183 and 10, no cosolvent for SRT1460
Description: as §1, with “calculated. Table 2 summarizes Kd values for the binding of STACs to […]. Note that except for SRT1460, the solubility of the compounds required that these ITC experiments be done in solutions containing 10% DMSO.” for “calculated.”

[5] = target: Ac-Arg-His-Lys-Lys^Ac-Phe-NH2; assay: ITC binding of STACs to Ac-Arg-His-Lys-Lys^Ac-X, X=PheNH2; conditions: 10% DMSO for SRT1720, SRT2183 and 10, no cosolvent for SRT1460
Description: as §1, with “calculated. Table 2 summarizes Kd values for the binding of STACs to […]. Note that except for SRT1460, the solubility of the compounds required that these ITC experiments be done in solutions containing 10% DMSO.” for “calculated.”

[6] = target: Ac-Arg-His-Lys-Lys^Ac-Trp-NH2; assay: ITC binding of STACs to Ac-Arg-His-Lys-Lys^Ac-X, X=TrpNH2; conditions: 10% DMSO for SRT1720, SRT2183 and 10, no cosolvent for SRT1460
Description: as §1, with “calculated. Table 2 summarizes Kd values for the binding of STACs to […]. Note that except for SRT1460, the solubility of the compounds required that these ITC experiments be done in solutions containing 10% DMSO.” for “calculated.”

SIRT1 [7] = target: T1, SIRT1; assay: Continuous PNC1-GDH-coupled assay of SIRT1-catalyzed deacetylation of Ac-Arg-His-Lys-Lys^Ac-X with STACs; assay type: biochemical; conditions: [SRT]o = 5 μM, [peptide]o ≦ Km, [NAD+] = 70 μM; for Relative Velocity, X=AMC: Ac-Arg-His-Lys-Lys^Ac-AMC; for Relative Velocity, X=Ala-NH2: Ac-Arg-His-Lys-Lys^Ac-Ala-NH2; for Relative Velocity, X=NH2: Ac-Arg-His-Lys-Lys^Ac-NH2; for Relative Velocity, X=Phe-NH2: Ac-Arg-His-Lys-Lys^Ac-Phe-NH2
Description: Bovine glutamate dehydrogenase (GDH), α-ketoglutarate, NADH and NAD^+ were from Sigma Chemical Company. […] The nicotinamidase PNC1 was prepared as described by Denu and colleagues (Smith et al. (2009) Anal Biochem 394, 101-109). To determine the interaction of STACs with SIRT1 two kinetic methods were employed. […] (2007) Nature 450, 712-716). The other, used with peptides of general structure […], used a continuous, enzyme-coupled method reported previously (Smith et al. (2009) Anal Biochem 394, 101-109), in which the SRT1 product nicotinamide is first converted into nicotinic acid and ammonia by the action of PNC1, and the ammonia then used by GDH to convert α-ketoglutarate into glutamate. This reaction occurs with oxidation of NADH to NAD^+ which is accompanied by a change in absorbance at 340 nm (Δε340=-6,200 M^-1 cm^-1). The kinetic experiments used to characterize activators were run on a Perkin Elmer Lambda 25 spectrophotometer equipped with a water-jacketed, eight-cell changer maintained at 25° C. In a typical kinetic experiment, all components of the reaction solution except SIRT1 were added to a 1 mL cuvette and allowed to reach thermal equilibrium. Final concentrations of the coupling system components were: 1 μM PNC1, 0.23 mM NADH, 3.4 mM α-ketoglutarate, and 20 U/mL bovine GDH. This solution also contained peptide substrate, NAD^.0., and activator, at concentrations indicated in the text. The final DMSO concentration was kept constant at 1%, and the buffer used in these experiments was 50 mM HEPES, 150 mM NaCl, pH 7.5. While the system was reaching thermal equilibrium, the absorbance was monitored to provide an accurate estimate of the background rate, which was subtracted from the reaction rate after the addition of SIRT1. Activator titrations were plotted as relative velocity (i.e., the ratio of vx, velocity in the presence of activator X, to vo, velocity in the absence of activator) vs. [X]o, initial concentration of activator, and fit by nonlinear least-squares to the mechanism-independent expression for enzyme activation of […] the maximum relative velocity (i.e., vx/vo at infinite [X]o) and EC50 is the activator concentration at which vx/vo=(RVmax-1)/2. EC50 is a function of the kinetic mechanisms of both catalysis and activation, and the concentrations of substrates.

Row | SMILES | Kd (TAMRA-peptide) [µM] | Emax (SIRT1 [1]; 25 min, percent maximum fold activation of SIRT1, read-out: % FOLD ACT.) [%] | EC1.5 uM (SIRT1 [1]; concentration that results in 150% activation of SIRT1) | EC1.5 for activation of SIRT1 (SIRT1 [2]; concentration for 1.5-fold activation) [µM] | EC50 (SIRT1 [2]; fit to eq (1), read-out: EC50 (Kx) for activation of SIRT1-catalyzed deacetylation of TAMRA-peptide) [µM] | Kd [3] [µM] | Kd [4] [µM] | Kd [5] [µM] | Kd [6] [µM] | Kd for binding to Ac-Arg-His-Lys-Lys^Ac-X, X=TrpNH2 [6] | Relative Velocity, X=AMC (SIRT1 [7]) | Relative Velocity, X=Ala-NH2 (SIRT1 [7]) | Relative Velocity, X=NH2 (SIRT1 [7]) | Relative Velocity, X=Phe-NH2 (SIRT1 [7]) | Relative Velocity, X=Trp-NH2 (SIRT1 [7]; Ac-Arg-His-Lys-Lys^Ac-Trp-NH2)
1 | O=C(Nc1ccccc1-c1nc2cc(CCC3CCNCC3)cnc2s1)c1cccc(C2CCNC2)c1 (centres unmarked) [Compound 7] | 36 | ≥ 200 | A (EC1.5≦1 μM) | 0.1 | 0.5 | – | – | – | – | – | – | – | – | – | –
2 | O=C(Nc1ccccc1-c1cn2c(CN3CCNCC3)csc2n1)c1cnc2ccccc2n1 [SRT1720] | – | – | – | – | – | > 500 | > 500 | > 500 | 150 | binds | 1.0 | 0.9 | 1.1 | 0.9 | –
3 | O=C(Nc1ccccc1-c1cn2c(CN3CC[C@@H](O)C3)csc2n1)c1ccc2ccccc2c1 [SRT2183] | – | – | – | – | – | > 50 | > 50 | > 50 | > 50 | – | 1.1 | 0.8 | 1.2 | 1.0 | 1.0
